This note sets out measurements from patent US6596885B2, “19-Nor steroids having a thiocarbonated chain in position 11beta, their preparation process and the intermediates of this process, their use as medicaments and compositions” (Aventis Pharma S.A., priority 1991, dated 2003).

Where two headings read alike, the source gives them in different places.

For test [1], the target named is T1, Estrogen receptor of a mouse uterus (Mus musculus, UniProt P19785).
T1 construct: The homogenate is then ultracentrifuged (209,000 g×30 mn.) at 0° C; from tissue; host or cells: uterus of 18 to 21-day old immature female mice, cytosol (ultracentrifugation supernatant of the homogenate)
T1 sequence (P19785 1-599): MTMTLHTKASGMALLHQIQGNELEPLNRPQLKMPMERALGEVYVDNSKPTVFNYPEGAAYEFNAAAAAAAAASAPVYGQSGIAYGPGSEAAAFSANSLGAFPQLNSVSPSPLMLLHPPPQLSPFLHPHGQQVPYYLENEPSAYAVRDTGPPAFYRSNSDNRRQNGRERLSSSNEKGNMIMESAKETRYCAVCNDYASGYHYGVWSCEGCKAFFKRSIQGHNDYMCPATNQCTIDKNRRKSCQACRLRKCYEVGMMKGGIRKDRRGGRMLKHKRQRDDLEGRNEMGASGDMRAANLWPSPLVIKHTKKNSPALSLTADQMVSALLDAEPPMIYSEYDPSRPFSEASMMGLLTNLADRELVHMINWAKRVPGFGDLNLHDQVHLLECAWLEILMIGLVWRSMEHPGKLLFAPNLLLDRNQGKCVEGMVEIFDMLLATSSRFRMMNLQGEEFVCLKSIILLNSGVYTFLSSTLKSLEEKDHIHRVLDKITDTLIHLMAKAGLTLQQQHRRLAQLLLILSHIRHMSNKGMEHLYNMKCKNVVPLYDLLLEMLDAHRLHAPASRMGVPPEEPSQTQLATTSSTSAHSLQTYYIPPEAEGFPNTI
The experiment in a line: Activity on the estrogen receptor of a mouse uterus (relative bond affinity, displacement of tritiated estradiol). Type of test: binding. To be noted: mouse uterus cytosol, RBA = 100 (CH)/(CX) relative to unlabelled estradiol. The protocol: 1—Study of the Activity of the Products of the Invention on the Estrogen Receptor of a Mouse Uterus
18 to 21-day old impuberal female mice are sacrificed, the uteri are removed, then homogenized at 0° C., using a Potter teflon-glass in a TS buffered solution (10 mM Tris, 0.25 M saccharose, HCl pH 7.4) (1 g of tissue per 25 ml of TS). The homogenate is then ultracentrifuged (209,000 g×30 mn.) at 0° C. The supernatant aliquots thus obtained are incubated at 25° C. for 5 hours, with a constant concentration (T) of tritiated estradiol in the presence of increasing concentrations either of unlabelled estradiol (0-1000×10^−9M), or of unlabelled product to be tested (1 to 25000×10^−9M). The concentration of bound tritiated estradiol (B) is then measured in each incubate by the carbon-dextran adsorption technique.
Calculation of the Relative Bond Affinity (RBA)
The following two curves are drawn: the percentage of bound tritiated hormone B/BO as a function of the logarithm of the concentration of unlabelled reference hormone or as a function of the logarothm of the concentration of unlabelled test product.
The straight line of the following equation:
BO=% of binding of the bound tritiated hormone in the absence of any unlabelled product.
B=% of the bound tritiated hormone in the presence of a concentration X of unlabelled product.
B min=% of bound tritiated hormone in the presence of a large excess of unlabelled reference hormone (500 nM).
The intersections of the straight line I50 and the curves allow the evaluation of the concentrations of unlabelled reference hormone (CH) and of the unlabelled test product (CX) which inhibit by 50% the specific binding of the tritiated hormone on the receptor.
The relative bond affinity (RBA) of the test product is calculated by the equation: […]

Test [2] has as its system MCF-7 mammary tumour cells. The experiment in a line: Anti-proliferative activity on the growth of MCF-7 mammary tumour cells (DNA dosage). It is filed as cell-based. Particulars: MCF-7 cells in DSE medium with 10^-10 M estradiol, D7 to D9, DNA by DABA fluorimetry, read-out: IC 50: concentration which inhibits the growth of MCF7 cells by 50%. As to the method:
2—Anti-proliferative Activity of the Products of the Invention on the Growth of MCF-7 Mammary Tumour Cells
MCF-7 lines are kept in culture in FCS medium (according to 1) at 37° C. in a humid atmosphere containing 5% CO2. Subconfluent cells are collected by trypsination (0.05% trypsin, 0.02% EDTA) then rinsed by gentle centrifugation. A sample of cells in suspension is counted with a Malassez cell.
The cells, resuspended in DSE medium (according to 1), are seeded at the rate of 50,000 cells per well in multiwell plates (24 wells of 2.5 cm^2). Twenty-four hours after seeding (D0), the product to be tested is added to the medium in ethanolic solution (final concentration of ethanol: 0.1%), at a concentration of 10^−11 to 10^−6M, the control wells receiving the same ethanol concentration. The media are renewed every 48 hours. At the end of the experiment (D7 to D9), the medium is extracted and the cells are immediately fixed with 150 microlitres of methanol in order to dose the DNA.
The anti-proliferative activity of the products is evaluated by their capacity to inhibit the increase of DNA
The DNA is dosed by a fluorimetric method using DABA (3,5 diaminobenzoic acid) (according to 2): 150 microlitres of DABA are added to each well; the plates are then incubated for 45 mn at 56° C., then 2 ml of 1N HCl is added. The fluorescence is measured using a fluorimeter (excitation wavelength: 408 nm, emission wavelength: 510 nm).
The quantity of DNA per well is evaluated relative to a reference scale obtained by treating a calf thymus DNA standard under the same conditions.
The concentration in nM which inhibits the growth of MCF7 cells by 50% (IC50) was determined in the manner indicated above:
(1) A Base Medium is Prepared as Follows
The FCS medium is composed of 95% of base medium and 5% of foetal calf serum.
The DSE medium is composed of 95% of base medium, 5% of steroid-free foetal calf serum on carbon-dextran and 10^−10 M of estradiol.
(2) Puzas and Goodman, Analytical Biochemistry, Vol 86, p. 50, 1978

Regarding `C[C@]12C[C@H](c3ccc(OCCCCC[S+]([O-])Cc4ccccn4)cc3)[C@@H]3c4ccc(O)cc4CC[C@H]3[C@@H]1CC[C@@H]2O` (stereo partly drawn) [Example 5, 11beta-[4-[5-[(2-pyridinylmethyl)sulphinyl]-pentyloxy]phenyl]estra-1,3,5(10)-triene-3,17beta-diol], the “Relative bond affinity (RBA), Estrogen receptor incubation 5H at 25° C.” value (“Relative bond affinity (RBA)” below) in test [1] is on record as 21.2. Also, the IC50 in test [2] (Homo sapiens, MCF7) worked out at 0.012 nM.

Regarding `C[C@]12C[C@H](CCCCCCCCSCc3ccccn3)[C@@H]3c4ccc(O)cc4CC[C@H]3[C@@H]1CC[C@@H]2O` [Example 1, 11beta-[8-[(2-pyridinylmethyl)thio]octyl]estra-1,3,5(10)-triene-3,17beta-diol], the IC50 in test [2] (Homo sapiens, MCF7) turned out to be 0.024 nM.

For `C[C@]12C[C@H](c3ccc(OCCCCCS(=O)(=O)CCCC(F)(F)C(F)(F)F)cc3)[C@@H]3c4ccc(O)cc4CC[C@H]3[C@@H]1CC[C@@H]2O` [Example 32, 11beta-[4-[5-[(4,4,5,5,5-pentafluoropentyl)sulphonyl]pentyloxy]phenyl]estra-1,3,5(10)-triene-3,17beta-diol], in test [1], the “Relative bond affinity (RBA)” value is reported as 56. The IC50 in test [2] (Homo sapiens, MCF7) stood at 0.1 nM.

As to `C[C@]12C[C@H](c3ccc(OCCCCC[S+]([O-])Cc4cccnc4)cc3)[C@@H]3c4ccc(O)cc4CC[C@H]3[C@@H]1CC[C@@H]2O` (stereo partly drawn) [Example 7, 11beta-[4-[5-[(3-pyridinylmethyl)sulphinyl]pentyloxy]phenyl]estra-1,3,5(10)-triene-3,17beta-diol], in test [1], the “Relative bond affinity (RBA)” value is on record as 26.3. Moreover, in test [2] (Homo sapiens, MCF7), the IC50 was 0.026 nM.

As for `C[C@]1(O)CC[C@H]2[C@@H]3CCc4cc(O)ccc4[C@H]3[C@@H](c3ccc(OCCCCCS(=O)(=O)CCCC(F)(F)C(F)(F)F)cc3)C[C@@]21C` [Example 78, 11beta-[4-[5-[(4,4,5,5,5-pentafluoropentyl)sulphonyl]pentyloxy]phenyl]17alpha-methyl estra-1,3,5(10)-triene-3,17beta-diol], the “Relative bond affinity (RBA)” value in test [1] is 21.8. In test [2], the IC50 amounted to 0.03 nM.

Regarding `CCCCCS(=O)(=O)C(C)CCCOc1ccc([C@H]2C[C@]3(C)[C@@H](O)CC[C@H]3[C@@H]3CCc4cc(O)ccc4[C@H]32)cc1` (stereo partly drawn) [Example 60, 11beta-[4-[4-(pentylsulphonyl)pentyloxy]phenyl]estra-1,3,5(10)-triene-3,17beta-diol], the “Relative bond affinity (RBA)” value in test [1] turned out to be 18.2. The IC50 in test [2] (Homo sapiens, MCF7) was 0.25 nM.
